Source: the supplement of paper PMC10307832

Experiments:
Assay in all cases: relative viability (nuclei count vs DMSO), 5 days (fraction); higher = more cells survive
Motesanib + Tozasertib = compound: CC1(C)CNc2cc(NC(=O)c3cccnc3NCc3ccncc3)ccc21 [Motesanib] + Cc1cc(Nc2cc(N3CCN(C)CC3)nc(Sc3ccc(NC(=O)C4CC4)cc3)n2)n[nH]1 [Tozasertib] (partner 0.1 µM)
Summary of the method: (§1)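 Dosing by pin tool came one day after lung cancer cell lines were seeded in 1536-well plates, using either one drug or a fixed anchor-drug dose plus five library-drug doses (not always all listed) in √10 steps. After 5 days, nuclei were counted on 4× images. Relative viability is treated-well nuclei count divided by vehicle-well nuclei count, and values are medians of duplicate plates.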

[1] = compound: C[C@@]1(C(=O)Nc2ccc(F)nc2)CCCN1c1nc(Nc2cc(C3CC3)n[nH]2)c2cccn2n1 + CC1(C)CCC(c2ccc(Cl)cc2)=C(CN2CCN(c3ccc(C(=O)NS(=O)(=O)c4ccc(N[C@H](CCN5CCOCC5)CSc5ccccc5)c(S(=O)(=O)C(F)(F)F)c4)cc3)CC2)C1 [Navitoclax] (partner 0.5 µM)
Summary of the method: as §1

[2] = compound: C[C@@]1(C(=O)Nc2ccc(F)nc2)CCCN1c1nc(Nc2cc(C3CC3)n[nH]2)c2cccn2n1 + C[C@@H](Oc1cc(-c2cnn(C3CCNCC3)c2)cnc1N)c1c(Cl)ccc(F)c1Cl [Crizotinib] (partner 1 µM)
Summary of the method: as §1

[3] = compound: C[C@@]1(C(=O)Nc2ccc(F)nc2)CCCN1c1nc(Nc2cc(C3CC3)n[nH]2)c2cccn2n1 + Nc1nc2[nH]cc(CCc3ccc(C(=O)N[C@@H](CCC(=O)O)C(=O)O)cc3)c2c(=O)[nH]1 [Pemetrexed] (partner 0.2 µM)
Summary of the method: as §1

Cell Line | relative viability (Motesanib + Tozasertib; first compound 0.01 µM) | relative viability (Motesanib + Tozasertib; first compound 0.03162 µM) | relative viability (Motesanib + Tozasertib; first compound 0.1 µM) | relative viability (Motesanib + Tozasertib; first compound 0.3162 µM) | relative viability (Motesanib + Tozasertib; first compound 1 µM) | relative viability ([1]; first compound 0.04 µM) | relative viability ([1]; first compound 0.1265 µM) | relative viability ([1]; first compound 0.4 µM) | relative viability ([1]; first compound 1.265 µM) | relative viability ([2]; first compound 0.04 µM) | relative viability ([2]; first compound 0.1265 µM) | relative viability ([2]; first compound 0.4 µM) | relative viability ([2]; first compound 1.265 µM) | relative viability ([3]; first compound 0.04 µM) | relative viability ([3]; first compound 0.1265 µM) | relative viability ([3]; first compound 0.4 µM) | relative viability ([3]; first compound 1.265 µM)
NCI-H838 | 0.296 | 0.244 | 0.255 | 0.236 | 0.249 | 1.21 | 1.01 | 0.948 | 1.1 | 0.868 | 0.67 | 0.621 | 0.708 | 0.234 | 0.233 | 0.216 | 0.215
SW 900 | 0.599 | 0.524 | 0.66 | 0.51 | 0.638 | – | – | – | – | – | – | – | – | 0.439 | 0.492 | 0.476 | 0.467
A549 | – | – | – | – | – | 0.95 | 0.902 | 0.742 | 0.688 | 0.52 | 0.402 | 0.248 | 0.089 | – | – | – | –
A-427 | 0.185 | 0.191 | 0.24 | 0.236 | 0.173 | 0.885 | 0.988 | 1.03 | 0.915 | 0.853 | 0.848 | 0.674 | 0.882 | 0.989 | 0.939 | 0.927 | 0.813
NCI-H1792 | – | – | – | – | – | 0.422 | 0.36 | 0.464 | 0.393 | 0.896 | 0.677 | 0.62 | 0.473 | 0.641 | 0.333 | 0.303 | 0.27
LCLC-97TM1 | 0.2 | 0.178 | 0.257 | 0.279 | 0.17 | 0.117 | 0.32 | 0.196 | 0.324 | 0.184 | 0.186 | 0.12 | 0.187 | 0.137 | 0.155 | 0.149 | 0.143
NCI-H1703 | – | – | – | – | – | 1.25 | 1.02 | 0.783 | 0.743 | 0.586 | 0.535 | 0.792 | – | – | – | – | –
LCLC-103H | 0.489 | 0.341 | 0.47 | 0.442 | 0.551 | – | – | – | – | 1.07 | 1.01 | 0.904 | 1.04 | 0.49 | 0.509 | 0.44 | 0.41
PC-3 [JPC-3] | 0.855 | 0.931 | 0.884 | 0.864 | 0.85 | 0.777 | 0.716 | 0.789 | 0.743 | 1.03 | 0.921 | 0.905 | 1.01 | 1.19 | 1.03 | 1.04 | 0.839
BEN | 0.505 | 0.529 | 0.627 | 0.547 | 0.543 | 0.0599 | 0.0547 | 0.0804 | 0.0539 | 0.773 | 1.19 | 0.59 | 0.999 | 0.919 | 0.65 | 0.616 | 0.653
NCI-H1666 | 0.665 | 0.599 | 0.634 | 0.6 | 0.617 | 0.823 | 0.777 | 0.578 | 0.581 | 0.811 | 0.845 | 0.708 | 0.574 | 0.797 | 0.735 | 0.714 | 0.683
